Test results reported in patent publication US7238362B2, “Dithianon-based fungicidal mixtures” (BASF Aktiengesellschaft, priority 2002, dated 2007).

System: Alternaria solani
Assay: Activity against early blight of tomato caused by Alternaria solani (protective spray, potted tomato plants)
Type: in vivo
Details: individual active compound, tomato leaves, evaluated after 5 days
Experimental: The active compounds were prepared separately as a stock solution comprising 0.25% by weight of active compound in acetone or DMSO. 1% by weight of the emulsifier Uniperol® EL (wetting agent having emulsifying and dispersing action based on ethoxylated alkylphenols) was added to this solution, and the mixture was diluted with water to the desired concentration.
Leaves of potted plants of the cultivar “Groβe Fleischtomate St. Pierre” were sprayed to runoff point with an aqueous suspension having the concentration of active compounds stated below. The next day, the leaves were infected with an aqueous […] suspension of Alternaria solani in 2% biomalt solution having a density of 0.17×10^6 spores/ml. The plants were then placed in a water-vapor-saturated chamber at temperatures of between 20 and 22 C. After 5 days, the infection on the leaves of the untreated, but infected control plants had developed to such an extent that the infection could be determined visually in %.
Evaluation was carried out by determining the infected leaf area in per cent. These percentages were converted into efficacies.
The efficacy (E) is calculated as follows using Abbot's formula: E=(1−α/β)·100 • α corresponds to the fungal infection of the treated plants in % and • β corresponds to the fungal infection of the untreated (control) plants in %
An efficacy of 0 means that the infection level of the treated plants corresponds to that of the untreated control plants; an efficacy of 100 means that the treated plants were not infected. […]

SMILES: N#Cc1sc2c(=O)c3ccccc3c(=O)c=2sc1C#N [I, dithianon]
- Efficacy in % of the untreated control (8 ppm in the spray liquor): 0%
- Efficacy in % of the untreated control (16 ppm in the spray liquor): 0%
- Efficacy in % of the untreated control (31 ppm in the spray liquor): 27%
- Efficacy in % of the untreated control (63 ppm in the spray liquor): 63%

SMILES: O=C(Nc1ccccc1-c1ccc(Cl)cc1)c1cccnc1Cl [II-1, boscalid]
- Efficacy in % of the untreated control (8 ppm in the spray liquor): 63%
- Efficacy in % of the untreated control (16 ppm in the spray liquor): 76%
- Efficacy in % of the untreated control (31 ppm in the spray liquor): 82%
- Efficacy in % of the untreated control (63 ppm in the spray liquor): 88%

SMILES: O=C(Nc1ccccc1-c1ccc(F)cc1)c1cccnc1Cl [II-2]
- Efficacy in % of the untreated control (8 ppm in the spray liquor): 27%
- Efficacy in % of the untreated control (16 ppm in the spray liquor): 39%
- Efficacy in % of the untreated control (31 ppm in the spray liquor): 27%
- Efficacy in % of the untreated control (63 ppm in the spray liquor): 88%
